Data reported in patent publication US20120095022A1, “DERIVATIVES OF 10-AMINO-1,2,3,4-TETRAHYDROPYRIDO[2,1-A]ISOINDOL-6(10BH)-ONES, METHOD FOR PREPARATION THEREOF AND THERAPEUTIC USES THEREOF” (UNIVERSITE D'ORLEANS, priority 2009, published 2012).

Tests used:
[1] = target: DYRK1A (Homo sapiens, UniProt Q13627); assay: DYRK1A kinase inhibition (Woodtide substrate)
[2] = tested on: Caco (colon); assay: Cytotoxicity on human cells, automated nuclei counting: Caco; type: cell-based; settings: exposed 24 h to 48 h, 0.1 to 25 μM
Experimental: (§1) Cytotoxicity: This method is based on an automated imaging analysis. 4.10^3 cells were cultivated on 96-well plates and left for 24 hours so as to bind, to spread and proliferate.
(§2) All the cell lines were cultivated in a DMEM or RPMI (Invitrogen) medium. All these media were completed with antibiotics (penicillin-streptomycin) (Lonza) and 10% by volume of fetal calf serum (Invitrogen). The cells were cultivated at 37° C. with 5% of CO2. The treatments with the molecules to be tested were carried out with increasing concentrations. The control experiments were also carried out by using suitable dilutions of DMSO (maximum 1% DMSO).

[3] = target: GSK-3αβ; assay: GSK-3 kinase inhibition (GS-1 substrate); settings: read-out: IC50 μM Kinases GSK3, buffer A, 30° C., 15 μM ATP
[4] = tested on: PC3 (prostate); assay: Cytotoxicity on human cells, automated nuclei counting: PC3; type: cell-based; settings: PC-3, exposed 24 h to 48 h, 0.1 to 25 μM
Experimental: as §1, §2

[5] = tested on: MDA-MB 231 (breast); assay: Cytotoxicity on human cells, automated nuclei counting: MDA-MB 231; type: cell-based; settings: MDA-MB 231 cells, exposed 24 h to 48 h, 0.1 to 25 μM
Experimental: as §1, §2

[6] = tested on: HCT 116 (colon); assay: Cytotoxicity on human cells, automated nuclei counting: HCT 116; type: cell-based; settings: HCT 116 cells, exposed 24 h to 48 h, 0.1 to 25 μM
Experimental: as §1, §2

[7] = tested on: Huh7 (liver); assay: Cytotoxicity on human cells, automated nuclei counting: Huh7; type: cell-based; settings: Huh-7, exposed 24 h to 48 h, 0.1 to 25 μM
Experimental: as §1, §2

[8] = target: T1, CDK5/D25 (Homo sapiens, UniProt Q00535); assay: CDK5 kinase inhibition (33P-ATP, histone H1); type: biochemical; settings: buffer C, 30° C., 15 μM ATP, read-out: IC50 μM Kinases CDK5
T1 construct: made in house
Experimental: The protein kinase inhibition activities of the compounds of the invention are tested according to the following general procedure:
Buffer C: 60 mM β-glycerophosphate, 15 mM p-nitrophenyl-phosphate, 25 mM Mops (pH 7.2), 5 mM EGTA, 15 mM mgCl2, 1 mM DTT, 1 mM sodium vanadate and 1 mM phenylphosphate.
The controls were made with suitable dilutions of DMSO.
ATP (3.000 Ci/mmol.; 10 mCi/mL) in a final volume of 30 μL. After 30 mins of incubation at 30° C., 25 μL of supernatant aliquots were deposited on phosphocellulose Whatman P81 paper pieces of 2.5×3 cm, and after 20 seconds, the filters were washed five times (for at least 5 minutes each time) in a solution of 10 mL of phosphoric acid/1 litre of water. The wet filters were counted in the presence of 1 mL of scintillation fluid ACS (Amersham).

[9] = tested on: fibroblast; assay: Cytotoxicity on human cells, automated nuclei counting: fibroblast; type: cell-based; settings: exposed 24 h to 48 h, 0.1 to 25 μM
Experimental: as §1, §2

[10] = tested on: NCI (lung); assay: Cytotoxicity on human cells, automated nuclei counting: NCI; type: cell-based; settings: exposed 24 h to 48 h, 0.1 to 25 μM
Experimental: as §1, §2

T1 sequence (Q00535 whole entry): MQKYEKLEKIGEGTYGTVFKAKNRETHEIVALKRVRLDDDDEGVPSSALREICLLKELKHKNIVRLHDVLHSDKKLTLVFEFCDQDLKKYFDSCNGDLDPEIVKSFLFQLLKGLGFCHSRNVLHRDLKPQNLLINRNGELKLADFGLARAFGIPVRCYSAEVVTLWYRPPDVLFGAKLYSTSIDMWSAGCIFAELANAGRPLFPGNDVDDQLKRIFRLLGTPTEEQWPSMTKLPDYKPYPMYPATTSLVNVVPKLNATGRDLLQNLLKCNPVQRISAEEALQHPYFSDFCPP
T1 sequence (Q15078 99-307 partner limits assumed): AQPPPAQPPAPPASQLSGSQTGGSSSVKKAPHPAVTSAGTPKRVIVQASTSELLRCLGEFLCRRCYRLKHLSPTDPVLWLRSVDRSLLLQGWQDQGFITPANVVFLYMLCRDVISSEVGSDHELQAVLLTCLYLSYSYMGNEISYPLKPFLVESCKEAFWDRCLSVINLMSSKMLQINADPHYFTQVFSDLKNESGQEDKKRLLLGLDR

| Compound | IC50 [1] | IC50 [2] | IC50 [3] | IC50 [4] | IC50 [5] | IC50 [6] | IC50 [7] | IC50 [8] | melting point | IC50 [9] | IC50 [10] |
| --- | --- | --- | --- | --- | --- | --- | --- | --- | --- | --- | --- |
| Cc1cccnc1NC(=O)Nc1cccc2c1C1CC3(CCN1C2=O)OCCO3 (stereo not drawn) [Compound 45] | > 10 µM | > 25 µM | 0.61 µM | > 25 µM | > 25 µM | 25 µM | > 25 µM | 3.1 µM | > 260 °C | > 25 µM | > 25 µM |
| O=C(Nc1nc2ccccc2s1)Nc1cccc2c1C1CCCCN1C2=O (stereo not drawn) [Compound 34, 1-(Benzo[d]thiazol-2-yl)-3-(6-oxo-1,2,3,4,6,10b-hexahydropyrido[2,1-a]-isoindol-10-yl)urea] | 88 µM | 0.7 µM | 3.5 µM | 1 µM | 1.5 µM | 0.5 µM | 0.6 µM | 16 µM | 260 °C | 2 µM | 4 µM |
| COc1cc(NC(=O)Nc2cccc3c2C2CC(O)CCN2C3=O)nc2ccccc12 (stereo not drawn) [Compound 109, 1-(2-Hydroxy-6-oxo-1,2,3,4,6,10b-hexahydropyrido[2,1-a]isoindol-10-yl)-3-(4-methoxyquinolin-2-yl)urea] | > 10 µM | 15 µM | 0.035 µM | 5 µM | 6 µM | 1 µM | 1 µM | 4.9 µM | > 260 °C | 5 µM | 1 µM |
| O=C1c2cccc(NC(=S)Nc3cccc(Br)n3)c2C2CCCCN12 (stereo not drawn) [Compound 67, 1-(6-Bromopyridin-2-yl)-3-(6-oxo-1,2,3,4,6,10b-hexahydropyrido[2,1-a]isoindol-10-yl)thiourea] | 92 µM | 3 µM | 4.5 µM | 8 µM | 4 µM | 2 µM | 10 µM | 8.1 µM | 195 °C | 10 µM | 12 µM |
| Cc1cccc(NC(=O)Nc2cccc3c2C2CC4(CCN2C3=O)SCCS4)n1 (stereo not drawn) [Compound 50] | > 10 µM | 10 µM | 2 µM | 6 µM | 15 µM | 12 µM | 5 µM | > 10 µM | 154 to 156 °C | 2 µM | 15 µM |
| Cc1nc(NC(=O)Nc2cccc3c2C2CCCCN2C3=O)cs1 (stereo not drawn) [Compound 35, 1-(2-Methylthiazol-4-yl)-3-(6-oxo-1,2,3,4,6,10b-hexahydropyrido[2,1-a]isoindol-10-yl)urea] | > 10 µM | 0.7 µM | 0.12 µM | 1.5 µM | 1.5 µM | 0.6 µM | 0.9 µM | 0.53 µM | 146 °C | 0.4 µM | 3 µM |
| Cc1cc(NC(=O)Nc2cccc3c2C2CCCCN2C3=O)no1 (stereo not drawn) [Compound 24, 1-(5-Méthylisoxazol-3-yl)-3-(6-oxo-1,2,3,4,6,10b-hexahydropyrido[2,1-a]isoindol-10-yl)urea] | > 10 µM | 3 µM | 0.033 µM | 6 µM | 3 µM | 2 µM | 3 µM | 2.7 µM | 156 °C | 12 µM | 10 µM |
| O=C1c2cccc(NC(=S)Nc3cnccn3)c2C2CCCCN12 (stereo not drawn) [Compound 63, 1-(6-Oxo-1,2,3,4,6,10b-hexahydropyrido[2,1-a]isoindol-10-yl)-3-(pyrazin-2-yl)thiourea] | > 100 µM | > 25 µM | 8 µM | > 25 µM | > 25 µM | > 25 µM | > 25 µM | 26 µM | 204 °C | > 25 µM | > 25 µM |
| Cc1cnc(NC(=O)Nc2cccc3c2C2CC4(CCN2C3=O)SCCS4)cn1 (stereo not drawn) [Compound 51] | > 10 µM | 0.5 µM | 0.05 µM | 0.4 µM | 0.4 µM | 0.2 µM | 0.3 µM | 0.22 µM | > 260 °C | 8 µM | 0.8 µM |
| COc1cc(NC(=O)Nc2cccc3c2C2CC4(CCN2C3=O)OCCO4)nc2ccccc12 (stereo not drawn) [Compound 48] | > 10 µM | > 25 µM | 1 µM | 8 µM | 4 µM | 8 µM | 8 µM | > 10 µM | 258 to 260 °C | 20 µM | 20 µM |
| Cc1cccc(NC(=O)Nc2cccc3c2C2CC4(CCN2C3=O)OCCO4)n1 (stereo not drawn) [Compound 46] | > 10 µM | 10 µM | 0.92 µM | 12 µM | 15 µM | 10 µM | 12 µM | > 10 µM | 240 to 242 °C | 20 µM | 12 µM |
| COC1CCN2C(=O)c3cccc(NC(=O)Nc4cccc(C)n4)c3C2C1 (stereo not drawn) [Compound 56, 1-(2-Methoxy-6-oxo-1,2,3,4,6,10b-hexahydropyrido[2,1-a]isoindol-10-yl)-3-(6-methylpyri-din-2-yl)urea] | > 10 µM | 6 µM | 0.32 µM | 6 µM | 7 µM | 3 µM | 3 µM | 4.3 µM |  | 7 µM | 10 µM |
| COC1CCN2C(=O)c3cccc(NC(=O)Nc4cc(C)ccn4)c3C2C1 (stereo not drawn) [Compound 58, 1-(2-methoxy-6-oxo-1,2,3,4,6,10b-hexahydropyrido[2,1-a]isoindol-10-yl)-3-(4-methylpyridin-2-yl)urea] | > 10 µM | 0.5 µM | 0.032 µM | 0.4 µM | 0.3 µM | 0.03 µM | 0.1 µM | 0.32 µM |  | 0.5 µM | 0.4 µM |
